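In this assay, cells in 96-well plates receive the compound at five concentrations for 48 hours. Endpoints are linearly interpolated between the surrounding concentrations. Here, GI50 denotes the concentration required for 50% inhibition of growth. TGI: total growth inhibition.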
How the values were obtained:
Assay in all cases: growth of human tumour cells (NCI), 48 h
[1] = system: OVCAR-8 ovarian
[2] = system: NCI-H23 lung
[3] = system: U251 CNS
[4] = system: COLO 205 colon
[5] = system: RXF 393 renal
[6] = system: MDA-MB-435
[7] = system: DU-145 prostate
[8] = system: SK-MEL-5 melanoma
[9] = system: SK-OV-3 ovarian
[10] = system: SNB-75 CNS
[11] = system: NCI/ADR-RES ovarian
[12] = system: ACHN renal
[13] = system: TK-10 renal
[14] = system: MCF7 breast
[15] = system: IGROV1 ovarian
[16] = system: SK-MEL-2 melanoma
[17] = system: A498 renal
[18] = system: SW-620 colon
[19] = system: HS 578T breast
[20] = system: BT-549 breast
[21] = system: UACC-257 melanoma
[22] = system: SN12C renal
[23] = system: NCI-H460 lung
[24] = system: M14 melanoma
[25] = system: KM12 colon
[26] = system: UACC-62 melanoma
[27] = system: OVCAR-4 ovarian
[28] = system: SNB-19 CNS
[29] = system: HOP-62 NSCLC
[30] = system: A549 NSCLC
[31] = system: NCI-H522 lung
[32] = system: CAKI-1 renal
[33] = system: MALME-3M melanoma
[34] = system: HCC-2998 colon
[35] = system: HOP-92 NSCLC
[36] = system: MOLT-4 leukemia
[37] = system: SR leukemia
[38] = system: T-47D breast
[39] = system: HT29 colon
[40] = system: EKVX NSCLC
[41] = system: OVCAR-5 ovarian
[42] = system: MDA-MB-231 breast
[43] = system: HCT-15 colon
[44] = system: LOX IMVI melanoma
[45] = system: UO-31 renal
[46] = system: NCI-H226 lung
[47] = system: PC-3 prostate
[48] = system: CCRF-CEM leukemia
[49] = system: RPMI-8226 leukemia
[50] = system: SK-MEL-28 melanoma
[51] = system: HL-60(TB) leukemia
[52] = system: SF-268 CNS
[53] = system: SF-295 CNS
[54] = system: HCT-116 colon
[55] = system: SF-539 CNS
[56] = system: K-562 leukemia
[57] = system: 786-0 renal

Q: Which results are given for `CNC(=O)c1cc(Oc2ccc3c(c2)sc2nc(-c4ccc(N(C)C)cc4)cn23)ccn1`?
A: GI50 [1]: 355 nM; TGI [1]: 2600 nM; GI50 [2]: 614 nM; TGI [2]: > 50000 nM; GI50 [3]: 210 nM; TGI [3]: 6370 nM; GI50 [4]: 260 nM; TGI [4]: 1960 nM; GI50 [5]: 128 nM; TGI [5]: 440 nM; GI50 [6]: 94 nM; TGI [6]: 237 nM; GI50 [7]: 451 nM; TGI [7]: > 50000 nM; GI50 [8]: 206 nM; TGI [8]: 2110 nM; GI50 [9]: 273 nM; TGI [9]: > 50000 nM; GI50 [10]: 123 nM; TGI [10]: 398 nM; GI50 [11]: 186 nM; TGI [11]: > 50000 nM; GI50 [12]: 303 nM; TGI [12]: > 50000 nM; GI50 [13]: 3720 nM; TGI [13]: > 50000 nM; GI50 [14]: 167 nM; TGI [14]: > 50000 nM; GI50 [15]: 292 nM; TGI [15]: > 50000 nM; GI50 [16]: 496 nM; TGI [16]: > 10500 nM; GI50 [17]: 140 nM; TGI [17]: 831 nM; GI50 [18]: 226 nM; TGI [18]: > 50000 nM; GI50 [19]: 219 nM; TGI [19]: > 44100 nM; GI50 [20]: 208 nM; TGI [20]: 31400 nM; GI50 [21]: 19600 nM; TGI [21]: > 50000 nM; GI50 [22]: 282 nM; TGI [22]: > 50000 nM; GI50 [23]: 206 nM; TGI [23]: > 50000 nM; GI50 [24]: 193 nM; TGI [24]: > 50000 nM; GI50 [25]: 241 nM; TGI [25]: > 50000 nM; GI50 [26]: 170 nM; TGI [26]: > 50000 nM; TGI [27]: > 50000 nM; GI50 [28]: 251 nM; TGI [28]: > 50000 nM; GI50 [29]: 319 nM; TGI [29]: > 50000 nM; GI50 [30]: 409 nM; TGI [30]: > 50000 nM; GI50 [31]: 146 nM; TGI [31]: 740 nM; GI50 [32]: 291 nM; TGI [32]: > 50000 nM; GI50 [33]: 291 nM; TGI [33]: > 50000 nM; GI50 [34]: 836 nM; TGI [34]: > 13400 nM; GI50 [35]: 260 nM; TGI [35]: > 30300 nM; GI50 [36]: 213 nM; TGI [36]: > 50000 nM; GI50 [37]: 114 nM; TGI [37]: > 50000 nM; GI50 [38]: 271 nM; TGI [38]: > 50000 nM; GI50 [39]: 177 nM; TGI [39]: 739 nM; GI50 [40]: 1980 nM; TGI [40]: > 50000 nM; GI50 [41]: 659 nM; TGI [41]: > 50000 nM; GI50 [42]: 438 nM; TGI [42]: > 37000 nM; GI50 [43]: 202 nM; TGI [43]: > 50000 nM; GI50 [44]: 474 nM; TGI [44]: 1770 nM; GI50 [45]: 289 nM; TGI [45]: > 50000 nM; GI50 [46]: 390 nM; TGI [46]: > 50000 nM; GI50 [47]: 225 nM; TGI [47]: > 50000 nM; GI50 [48]: 197 nM; TGI [48]: > 50000 nM; GI50 [49]: 329 nM; TGI [49]: > 50000 nM; GI50 [50]: 1740 nM; TGI [50]: > 50000 nM; GI50 [51]: 134 nM; TGI [51]: 3480 nM; GI50 [52]: 854 nM; TGI [52]: > 50000 nM; GI50 [53]: 160 nM; TGI [53]: 1150 nM; GI50 [54]: 241 nM; TGI [54]: > 50000 nM; GI50 [55]: 178 nM; TGI [55]: 1280 nM; GI50 [56]: 152 nM; TGI [56]: > 50000 nM; GI50 [57]: 291 nM; TGI [57]: > 18100 nM

From PubChem BioAssay (NCI)
